Measurements as given in patent US9481639B2, “Substituted tetracycline compounds for treatment of inflammatory skin disorders” (Paratek Pharmaceuticals, Inc., priority 2006, dated 2016).
Values after ≈ are worked out from the molar mass of the structure shown. Where two headings read alike, the source gives them in different places.

Experiments:
[1] = tested on: B. thetaiotaomicron ATCC 29741; assay: Antibacterial MIC, CLSI broth microdilution; format: cell-based
Method: (§1) Gram (−) and gram (+) antibacterial minimum inhibitory concentration (MIC) values (μg/mL) were obtained using CLSI methodology for anti-bacterial susceptibility testing. On each day of testing, serial dilutions of compounds were prepared in microdilution plates using a Tecan robotic workstation. Mueller Hinton broth cultures of representative sensitive and resistant gram negative strains were grown or adjusted to match the turbidity of a 0.5 McFarland standard. 1:200 dilutions were made in an appropriate broth (cation supplemented Mueller Hinton broth) to allow a final inoculum of 1×10^5 cfu. Plates were incubated at 35° C. in ambient air for 18-24 hours, were read spectrophotometrically and checked manually for evidence of bacterial growth. The lowest dilution of compound that inhibited growth was recorded as the MIC. Lysed horse blood was used to supplement broth for testing S. pneumoniae. The MIC's for each compound were assessed against S. aureus, S. pneumoniae, P. acnes, E. coli and B. theta.

E. coli MG. 1655 = assay: Antibacterial MIC, CLSI broth microdilution; format: cell-based; conditions: Escherichia coli, 35° C., 18-24 hours
Method: as §1

[2] = tested on: S. pneumoniae 157E - Strep; assay: Antibacterial MIC, CLSI broth microdilution; format: cell-based; conditions: Streptococcus pneumoniae, 157ESTREP; broth supplemented with lysed horse blood
Method: as §1

E. coli ATCC 25922 = assay: Antibacterial MIC, CLSI broth microdilution; format: cell-based; conditions: Escherichia coli, ATCC25922; 35° C., 18-24 hours
Method: as §1

P. acnes ATCC 11827 = assay: Antibacterial MIC, CLSI broth microdilution; format: cell-based; conditions: Cutibacterium acnes, ATCC11827
Method: as §1

S. aureus RN450 [3] = assay: Antibacterial MIC, CLSI broth microdilution; format: cell-based; conditions: Staphylococcus aureus, 35° C., 18-24 hours
Method: as §1

P. acnes ATCC 6919 = assay: Antibacterial MIC, CLSI broth microdilution; format: cell-based; conditions: Cutibacterium acnes, ATCC6919
Method: as §1

in vitro = format: cell-based
Method: Mammalian cell cytotoxicity was assessed to evaluate potential in vivo risks associated with the tetracycline compounds of the invention. A soluble, non-toxic redox dye (“Resazurin”; Alamar Blue) was used to assess a tetracycline compound's effect on cellular metabolism. At the onset of the experiment, cultures of mammalian COS-1 or CHO cells were washed, trypsinized, and harvested. […] On the next day, serial dilutions of test drug were prepared under sterile conditions and transferred to cell plates. Plates were then incubated under the above conditions for 24 hours. Following the incubation period, the media/drug was aspirated, and 50 μL of resazurin was added. Plates were then incubated under the above conditions for 2 hours and then in the dark at room temperature for an additional 30 minutes. Fluorescence measurements were taken (excitation 535 nm, emission 590 nm) and toxic effects in treated versus control cells were compared based on the degree of fluorescence in each well.

S. aureus RN450 [4] = assay: In vivo anti-bacterial activity, S. aureus lethal infection model; conditions: Staphylococcus aureus, sc, mice; for ED50: lethal IP S. aureus RN450, subcutaneous, 24 hours, read-out: PD50 (dose that protects 50% of the animals)
Method: Groups of five mice were injected intraperitoneally with a lethal dose of S. aureus RN450 in a medium of mucin. Mice were evaluated at 24 hours to determine survival. […] In some instances, a dose response study was performed with the compound such that a PD50 (a dose of compound that protects 50% of the animals) could be calculated.

[5] = Bacteroides thetaiotaomicron, ATCC29741; read-out: MIC B. thetaiotaomicron ATCC 29741
[6] = Bacteroides thetaiotaomicron, ATCC29741, read-out: MIC B. thetaiotaomicron ATCC 29741

## CC(=NOCC(F)(F)F)c1cc(N)c(O)c2c1C[C@H]1C[C@H]3[C@H](N(C)C)C(O)=C(C(N)=O)C(=O)[C@@]3(O)C(O)=C1C2=O [Compound AW, (4S,4aS,5aR,12aS)-9-Amino-4-dimethylamino-3,10,12,12a-tetrahydroxy-1,1,1-dioxo-7-[1-(2,2,2-trifluoro-ethoxyimino)-ethyl]-1,4,4a,5,5a,6,11,12a-octahydro-naphthacene-2-carboxylic acid amide]
[1]; [5]
  MIC: 4 to 8 µg/mL (≈ 7.04 to 14.1 µM)
E. coli MG. 1655
  MIC: 4 to 8 µg/mL (≈ 7.04 to 14.1 µM)
[2]
  MIC: < 4 µg/mL
E. coli ATCC 25922
  MIC: 4 to 8 µg/mL (≈ 7.04 to 14.1 µM)
P. acnes ATCC 11827
  MIC: < 4 µg/mL
S. aureus RN450 [3]
  MIC: < 4 µg/mL
P. acnes ATCC 6919
  MIC: < 4 µg/mL

## CCON=C(CCN(C)C)c1ccc(O)c2c1C[C@H]1C[C@H]3[C@@H](N(C)C)C(O)=C(C(N)=O)C(=O)[C@@]3(O)C(O)=C1C2=O [Compound I, (4R,4aS,5aR,12aS)-4-Dimethylamino-7-(3-dimethylamino-1-ethoxyimino-propyl)-3,10,12,12a-tetrahydroxy-1,11-dioxo-1,4,4a,5,5a,6,11,12a-octahydro-naphthacene-2-carboxylic acid amide]
[1]; [5]
  MIC: 4 to 8 µg/mL (≈ 7.19 to 14.4 µM)
E. coli MG. 1655
  MIC: < 4 µg/mL
[2]
  MIC: < 4 µg/mL
E. coli ATCC 25922
  MIC: < 4 µg/mL
P. acnes ATCC 11827
  MIC: < 4 µg/mL
S. aureus RN450 [3]
  MIC: < 4 µg/mL
P. acnes ATCC 6919
  MIC: < 4 µg/mL
In vitro; African green monkey
  IC50 at 24 h: > 75 µg/mL
In vitro; Chinese hamster
  IC50 at 24 h: > 75 µg/mL

## CCON=C(C)c1cc(CNCC(C)(C)C)c(O)c2c1C[C@H]1C[C@H]3[C@H](N(C)C)C(O)=C(C(N)=O)C(=O)[C@@]3(O)C(O)=C1C2=O [Compound N, (4S,4aS,5aR,12aS)-4-Dimethylamino-9-[(2,2-dimethyl-propylamino)-methyl]-7-(1-ethoxyimino-ethyl)-3,10,12,12a-tetrahydroxy-1,11-dioxo-1,4,4a,5,5a,6,11,12a-octahydro-naphthacene-2-carboxylic acid amide]
[1]; [5]
  MIC: < 4 µg/mL
E. coli MG. 1655
  MIC: 4 to 8 µg/mL (≈ 6.68 to 13.4 µM)
[2]
  MIC: < 4 µg/mL
E. coli ATCC 25922
  MIC: < 4 µg/mL
P. acnes ATCC 11827
  MIC: < 4 µg/mL
S. aureus RN450 [3]
  MIC: < 4 µg/mL
P. acnes ATCC 6919
  MIC: < 4 µg/mL
In vitro; African green monkey
  IC50 at 24 h: > 75 µg/mL
In vitro; Chinese hamster
  IC50 at 24 h: > 75 µg/mL

## CON(C)Cc1ccc(O)c2c1C[C@H]1C[C@H]3[C@H](N(C)C)C(O)=C(C(N)=O)C(=O)[C@@]3(O)C(O)=C1C2=O [Compound P]
[1]; [6]
  MIC: 4 to 8 µg/mL (≈ 8.2 to 16.4 µM)

## CC(=NOC(C)(C)C)c1cc(N)c(O)c2c1C[C@H]1C[C@H]3[C@H](N(C)C)C(O)=C(C(N)=O)C(=O)[C@@]3(O)C(O)=C1C2=O [Compound Q, (4S,4aS,5aR,12aS)-9-Amino-7-(1-tert-butoxyimino-ethyl)-4-dimethylamino-3,10,12,12a-tetrahydroxy-1,11-dioxo-1,4,4a,5,5a,6,11,12a-octahydro-naphthacene-2-carboxylic acid amide]
S. aureus RN450 [4]; lethal IP S. aureus RN450, single subcutaneous dose 5 mg/kg, survival at 24 hours, read-out: Percent Survival
  responders at 5 mg/kg: 100%
S. aureus RN450 [4]
  ED50: 0.45 mg/kg
[1]; [5]
  MIC: 4 to 8 µg/mL (≈ 7.37 to 14.7 µM)
E. coli MG. 1655
  MIC: 4 to 8 µg/mL (≈ 7.37 to 14.7 µM)
[2]
  MIC: < 4 µg/mL
E. coli ATCC 25922
  MIC: 4 to 8 µg/mL (≈ 7.37 to 14.7 µM)
P. acnes ATCC 11827
  MIC: < 4 µg/mL
S. aureus RN450 [3]
  MIC: < 4 µg/mL
P. acnes ATCC 6919
  MIC: < 4 µg/mL
In vitro; African green monkey
  IC50 at 24 h: < 35 µg/mL
In vitro; Chinese hamster
  IC50 at 24 h: < 35 µg/mL

## CN(C)[C@@H]1C(O)=C(C(N)=O)C(=O)[C@@]2(O)C(O)=C3C(=O)c4cccc(-c5cnccn5)c4C[C@H]3C[C@@H]12 [Compound W, (4S,4aS,5aR,12aS)-4-Dimethylamino-3,12,12a-trihydroxy-1,11-dioxo-7-pyrazin-2-yl-1,4,4a,5,5a,6,11,12a-octahydro-naphthacene-2-carboxylic acid amide]
S. aureus RN450 [4]
  ED50: 1.08 mg/kg
[1]; [5]
  MIC: > 8 µg/mL
E. coli MG. 1655
  MIC: > 8 µg/mL
[2]
  MIC: < 4 µg/mL
E. coli ATCC 25922
  MIC: > 8 µg/mL
P. acnes ATCC 11827
  MIC: < 4 µg/mL
S. aureus RN450 [3]
  MIC: < 4 µg/mL
P. acnes ATCC 6919
  MIC: < 4 µg/mL
In vitro; African green monkey
  IC50 at 24 h: > 75 µg/mL
In vitro; Chinese hamster
  IC50 at 24 h: > 75 µg/mL

## CCON=C(C)c1cc(N)c(O)c2c1C[C@H]1C[C@H]3[C@H](N(C)C)C(O)=C(C(N)=O)C(=O)[C@@]3(O)C(O)=C1C2=O [M]
[1]; [5]
  MIC: 4 to 8 µg/mL (≈ 7.77 to 15.5 µM)
E. coli MG. 1655
  MIC: 4 to 8 µg/mL (≈ 7.77 to 15.5 µM)
[2]
  MIC: < 4 µg/mL
E. coli ATCC 25922
  MIC: < 4 µg/mL
P. acnes ATCC 11827
  MIC: < 4 µg/mL
S. aureus RN450 [3]
  MIC: < 4 µg/mL
P. acnes ATCC 6919
  MIC: < 4 µg/mL
In vitro; African green monkey
  IC50 at 24 h: > 75 µg/mL
In vitro; Chinese hamster
  IC50 at 24 h: > 75 µg/mL

## CN(C)CCC(=NOC(C)(C)C)c1ccc(O)c2c1C[C@H]1C[C@H]3[C@H](N(C)C)C(O)=C(C(N)=O)C(=O)[C@@]3(O)C(O)=C1C2=O [O]
[1]; [5]
  MIC: < 4 µg/mL
E. coli MG. 1655
  MIC: < 4 µg/mL
[2]
  MIC: < 4 µg/mL
E. coli ATCC 25922
  MIC: < 4 µg/mL
P. acnes ATCC 11827
  MIC: < 4 µg/mL
S. aureus RN450 [3]
  MIC: < 4 µg/mL
P. acnes ATCC 6919
  MIC: < 4 µg/mL
In vitro; African green monkey
  IC50 at 24 h: 35 to 75 µg/mL (≈ 59.9 to 128 µM)
In vitro; Chinese hamster
  IC50 at 24 h: < 35 µg/mL

## CC(=NOC(C)(C)C)c1cc(N)c(O)c2c1C[C@H]1C[C@H]3[C@@H](N(C)C)C(O)=C(C(N)=O)C(=O)[C@@]3(O)C(O)=C1C2=O [R]
[1]; [5]
  MIC: 4 to 8 µg/mL (≈ 7.37 to 14.7 µM)
E. coli MG. 1655
  MIC: > 8 µg/mL
[2]
  MIC: < 4 µg/mL
E. coli ATCC 25922
  MIC: > 8 µg/mL
P. acnes ATCC 11827
  MIC: < 4 µg/mL
S. aureus RN450 [3]
  MIC: < 4 µg/mL
P. acnes ATCC 6919
  MIC: < 4 µg/mL
In vitro; African green monkey
  IC50 at 24 h: < 35 µg/mL
In vitro; Chinese hamster
  IC50 at 24 h: < 35 µg/mL

## CON(C)Cc1ccc(O)c2c1C[C@H]1C[C@H]3[C@@H](N(C)C)C(O)=C(C(N)=O)C(=O)[C@@]3(O)C(O)=C1C2=O [Y]
[1]; [6]
  MIC: > 8 µg/mL
